Patent publication US11713338B2, “Cyclic peptides multimers targeting α-4-β-7 integrin” (priority 2016, dated 2023)

Biological target: T1, integrin α4β7 (RPMI8866 human cells adhering to MAdCAM-1) (Homo sapiens, UniProt P13612+P26010)
T1 construct: RMP18866 cells, which express integrin α4β7; host or cells: RPMI8866
T1 sequence (P13612 34-1032): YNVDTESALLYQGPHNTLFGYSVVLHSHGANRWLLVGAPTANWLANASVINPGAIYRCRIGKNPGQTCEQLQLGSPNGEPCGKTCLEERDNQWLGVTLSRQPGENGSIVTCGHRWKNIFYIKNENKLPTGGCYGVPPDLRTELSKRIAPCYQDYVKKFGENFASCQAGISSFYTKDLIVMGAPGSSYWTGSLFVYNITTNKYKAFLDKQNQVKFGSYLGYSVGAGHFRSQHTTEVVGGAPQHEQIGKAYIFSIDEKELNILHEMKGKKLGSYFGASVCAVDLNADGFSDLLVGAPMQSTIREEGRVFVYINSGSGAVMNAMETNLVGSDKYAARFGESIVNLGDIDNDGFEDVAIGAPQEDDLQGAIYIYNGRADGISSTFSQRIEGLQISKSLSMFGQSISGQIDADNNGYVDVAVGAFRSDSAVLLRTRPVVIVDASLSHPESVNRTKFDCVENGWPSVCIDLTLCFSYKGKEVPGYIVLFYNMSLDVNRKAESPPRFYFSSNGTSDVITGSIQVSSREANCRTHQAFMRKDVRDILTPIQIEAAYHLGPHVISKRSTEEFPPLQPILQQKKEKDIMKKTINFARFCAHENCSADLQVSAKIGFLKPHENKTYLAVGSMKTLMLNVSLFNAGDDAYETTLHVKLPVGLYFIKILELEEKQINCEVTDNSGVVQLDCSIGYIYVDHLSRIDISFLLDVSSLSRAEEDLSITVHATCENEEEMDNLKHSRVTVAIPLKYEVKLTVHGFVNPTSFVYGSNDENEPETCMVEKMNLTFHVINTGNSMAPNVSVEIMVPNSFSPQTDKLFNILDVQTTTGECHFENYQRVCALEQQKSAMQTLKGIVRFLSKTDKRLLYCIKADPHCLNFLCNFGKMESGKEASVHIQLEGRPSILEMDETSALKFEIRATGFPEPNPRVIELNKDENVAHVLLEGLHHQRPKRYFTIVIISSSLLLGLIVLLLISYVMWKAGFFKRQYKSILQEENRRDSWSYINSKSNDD
T1 sequence (P26010 20-798): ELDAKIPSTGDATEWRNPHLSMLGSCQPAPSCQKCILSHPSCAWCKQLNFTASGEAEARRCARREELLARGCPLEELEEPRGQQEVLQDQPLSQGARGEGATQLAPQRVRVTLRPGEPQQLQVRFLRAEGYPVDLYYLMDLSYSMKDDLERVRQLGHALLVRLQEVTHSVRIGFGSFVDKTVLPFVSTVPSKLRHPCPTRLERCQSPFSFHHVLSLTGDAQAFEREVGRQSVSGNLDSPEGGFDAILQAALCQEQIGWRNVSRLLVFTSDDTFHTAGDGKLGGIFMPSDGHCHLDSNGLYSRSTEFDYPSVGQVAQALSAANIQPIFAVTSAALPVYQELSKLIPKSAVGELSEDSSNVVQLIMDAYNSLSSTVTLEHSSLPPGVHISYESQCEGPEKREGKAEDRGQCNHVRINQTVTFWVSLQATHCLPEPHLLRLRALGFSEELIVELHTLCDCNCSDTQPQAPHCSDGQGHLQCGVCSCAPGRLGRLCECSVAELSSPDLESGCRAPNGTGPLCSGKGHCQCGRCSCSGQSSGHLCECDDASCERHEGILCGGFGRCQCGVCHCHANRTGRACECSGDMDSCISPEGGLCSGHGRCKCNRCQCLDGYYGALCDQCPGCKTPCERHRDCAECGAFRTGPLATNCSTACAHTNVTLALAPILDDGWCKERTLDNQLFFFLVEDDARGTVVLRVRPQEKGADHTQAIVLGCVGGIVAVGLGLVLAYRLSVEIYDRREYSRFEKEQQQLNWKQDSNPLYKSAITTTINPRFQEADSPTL
Experiment: Integrin α4β7-MAdCAM cell adhesion assay (RPMI8866 cells)
Format: cell-based
Conditions: RPMI8866 cells adhering to MAdCAM; read-out: RPMI8866 Adhesion α4β7/MAdCAM IC50
In short: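 RPMI8866 cells were loaded with […] calcein in PBS for 30 min at 37° C. After plate washes with PBS, fluorescence of adherent cells was read, and no-cell control wells were subtracted from each test well to build the dose response.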

Structure (SMILES): CC(C)C[C@@H]1NC(=O)C[C@H](CCCCN)N(C)C(=O)[C@H](CCCCNC(=O)c2cc(C(=O)NCCCC[C@@H]3NC(=O)[C@@H]4CCCN4[C@H](C(=O)NC(C)(C)C)[C@H](C)NC(=O)[C@H]([C@@H](C)O)NC(=O)[C@H](CC(=O)O)NC(=O)[C@H](CC(C)C)NC(=O)C[C@H](CCCCN)N(C)C3=O)cc(C(=O)NCCCC[C@@H]3NC(=O)[C@@H]4CCCN4[C@H](C(=O)NC(C)(C)C)[C@H](C)NC(=O)[C@H]([C@@H](C)O)NC(=O)[C@H](CC(=O)O)NC(=O)[C@H](CC(C)C)NC(=O)C[C@H](CCCCN)N(C)C3=O)c2)NC(=O)[C@@H]2CCCN2[C@H](C(=O)NC(C)(C)C)[C@H](C)NC(=O)[C@H]([C@@H](C)O)NC(=O)[C@H](CC(=O)O)NC1=O [Compound 538]
- IC50: 13 nM

Structure (SMILES): CC(C)C[C@@H]1NC(=O)C[C@H](CCCCN)N(C)C(=O)[C@H](CCCCNC(=O)CCCCCCCC(=O)NCCCC[C@@H]2NC(=O)[C@@H]3CCCN3[C@H](C(=O)NC(C)(C)C)[C@H](C)NC(=O)[C@H]([C@@H](C)O)NC(=O)[C@H](CC(=O)O)NC(=O)[C@H](CC(C)C)NC(=O)C[C@H](CCCCN)N(C)C2=O)NC(=O)[C@@H]2CCCN2[C@H](C(=O)NC(C)(C)C)[C@H](C)NC(=O)[C@H]([C@@H](C)O)NC(=O)[C@H](CC(=O)O)NC1=O [Compound 533]
- IC50: 17 nM

Structure (SMILES): CC(C)C[C@@H]1NC(=O)c2ccc(-c3ccc(N4CCN(Cc5cc(CN6CCN(c7ccc(-c8ccc9cc8CNC(=O)[C@@H]8CCCN8[C@H](C(=O)NC(C)(C)C)[C@H](C)NC(=O)[C@H]([C@@H](C)O)NC(=O)[C@H](CC(=O)O)NC(=O)[C@H](CC(C)C)NC9=O)cc7)CC6)cc(CN6CCN(c7ccc(-c8ccc9cc8CNC(=O)[C@@H]8CCCN8[C@H](C(=O)NC(C)(C)C)[C@H](C)NC(=O)[C@H]([C@@H](C)O)NC(=O)[C@H](CC(=O)O)NC(=O)[C@H](CC(C)C)NC9=O)cc7)CC6)c5)CC4)cc3)c(c2)CNC(=O)[C@@H]2CCCN2[C@H](C(=O)NC(C)(C)C)[C@H](C)NC(=O)[C@H]([C@@H](C)O)NC(=O)[C@H](CC(=O)O)NC1=O [Compound 518]
- IC50: 18 nM

Structure (SMILES): CC(C)C[C@@H]1NC(=O)c2ccc(-c3ccc(N4CCN(CCC(=O)N5CCN(c6ccc(-c7ccc8cc7CNC(=O)[C@@H]7CCCN7[C@H](C(=O)NC(C)(C)C)[C@H](C)NC(=O)[C@H]([C@@H](C)O)NC(=O)[C@H](CC(=O)O)NC(=O)[C@H](CC(C)C)NC8=O)cc6)CC5)CC4)cc3)c(c2)CNC(=O)[C@@H]2CCCN2[C@H](C(=O)NC(C)(C)C)[C@H](C)NC(=O)[C@H]([C@@H](C)O)NC(=O)[C@H](CC(=O)O)NC1=O [Compound 482]
- IC50: 26 nM

Structure (SMILES): CC(C)C[C@@H]1NC(=O)c2ccc(-c3ccc(N4CCN(C(=O)c5ccc(-c6ccc(C(=O)N7CCN(c8ccc(-c9ccc%10cc9CNC(=O)[C@@H]9CCCN9[C@H](C(=O)NC(C)(C)C)[C@H](C)NC(=O)[C@H]([C@@H](C)O)NC(=O)[C@H](CC(=O)O)NC(=O)[C@H](CC(C)C)NC%10=O)cc8)CC7)cc6)cc5)CC4)cc3)c(c2)CNC(=O)[C@@H]2CCCN2[C@H](C(=O)NC(C)(C)C)[C@H](C)NC(=O)[C@H]([C@@H](C)O)NC(=O)[C@H](CC(=O)O)NC1=O [Compound 474]
- IC50: 14 nM

Structure (SMILES): CC(C)C[C@@H]1NC(=O)c2ccc(-c3ccc(N4CCN(Cc5cccc(CN6CCN(c7ccc(-c8ccc9cc8CNC(=O)[C@@H]8CCCN8[C@H](C(=O)NC(C)(C)C)[C@H](C)NC(=O)[C@H]([C@@H](C)O)NC(=O)[C@H](CC(=O)O)NC(=O)[C@H](CC(C)C)NC9=O)cc7)CC6)c5)CC4)cc3)c(c2)CNC(=O)[C@@H]2CCCN2[C@H](C(=O)NC(C)(C)C)[C@H](C)NC(=O)[C@H]([C@@H](C)O)NC(=O)[C@H](CC(=O)O)NC1=O [Compound 499]
- IC50: 42 nM

Structure (SMILES): CC(C)C[C@@H]1NC(=O)C[C@H](CCCCN)N(C)C(=O)[C@H](CCCCNC(=O)c2ccccc2-c2ccccc2C(=O)NCCCC[C@@H]2NC(=O)[C@@H]3CCCN3[C@H](C(=O)NC(C)(C)C)[C@H](C)NC(=O)[C@H]([C@@H](C)O)NC(=O)[C@H](CC(=O)O)NC(=O)[C@H](CC(C)C)NC(=O)C[C@H](CCCCN)N(C)C2=O)NC(=O)[C@@H]2CCCN2[C@H](C(=O)NC(C)(C)C)[C@H](C)NC(=O)[C@H]([C@@H](C)O)NC(=O)[C@H](CC(=O)O)NC1=O [Compound 535]
- IC50: 15 nM

Structure (SMILES): CC(C)C[C@@H]1NC(=O)c2ccc(-c3ccc(N4CCN(C(=O)CCOCCOCCNC(=O)CCCCCC(=O)NCCOCCOCCC(=O)N5CCN(c6ccc(-c7ccc8cc7CNC(=O)[C@@H]7CCCN7[C@H](C(=O)NC(C)(C)C)[C@H](C)NC(=O)[C@H]([C@@H](C)O)NC(=O)[C@H](CC(=O)O)NC(=O)[C@H](CC(C)C)NC8=O)cc6)CC5)CC4)cc3)c(c2)CNC(=O)[C@@H]2CCCN2[C@H](C(=O)NC(C)(C)C)[C@H](C)NC(=O)[C@H]([C@@H](C)O)NC(=O)[C@H](CC(=O)O)NC1=O [Compound 505]
- IC50: 59 nM

Structure (SMILES): CC(C)C[C@@H]1NC(=O)C[C@H](CCCCN)N(C)C(=O)[C@H](CCCCNC(=O)CCCCCCCCC(=O)NCCCC[C@@H]2NC(=O)[C@@H]3CCCN3[C@H](C(=O)NC(C)(C)C)[C@H](C)NC(=O)[C@H]([C@@H](C)O)NC(=O)[C@H](CC(=O)O)NC(=O)[C@H](CC(C)C)NC(=O)C[C@H](CCCCN)N(C)C2=O)NC(=O)[C@@H]2CCCN2[C@H](C(=O)NC(C)(C)C)[C@H](C)NC(=O)[C@H]([C@@H](C)O)NC(=O)[C@H](CC(=O)O)NC1=O [Compound 530]
- IC50: 15 nM

Structure (SMILES): CC(C)C[C@@H]1NC(=O)c2ccc(-c3ccc(N4CCN(C(=O)c5cc(-c6ccccc6)c(C(=O)N6CCN(c7ccc(-c8ccc9cc8CNC(=O)[C@@H]8CCCN8[C@H](C(=O)NC(C)(C)C)[C@H](C)NC(=O)[C@H]([C@@H](C)O)NC(=O)[C@H](CC(=O)O)NC(=O)[C@H](CC(C)C)NC9=O)cc7)CC6)cc5-c5ccccc5)CC4)cc3)c(c2)CNC(=O)[C@@H]2CCCN2[C@H](C(=O)NC(C)(C)C)[C@H](C)NC(=O)[C@H]([C@@H](C)O)NC(=O)[C@H](CC(=O)O)NC1=O [Compound 469]
- IC50: 5 nM

Structure (SMILES): CC(C)C[C@@H]1NC(=O)c2ccc(-c3ccc(N4CCN(C(=O)c5nccnc5C(=O)N5CCN(c6ccc(-c7ccc8cc7CNC(=O)[C@@H]7CCCN7[C@H](C(=O)NC(C)(C)C)[C@H](C)NC(=O)[C@H]([C@@H](C)O)NC(=O)[C@H](CC(=O)O)NC(=O)[C@H](CC(C)C)NC8=O)cc6)CC5)CC4)cc3)c(c2)CNC(=O)[C@@H]2CCCN2[C@H](C(=O)NC(C)(C)C)[C@H](C)NC(=O)[C@H]([C@@H](C)O)NC(=O)[C@H](CC(=O)O)NC1=O [Compound 467]
- IC50: 43 nM

Structure (SMILES): CC(C)C[C@@H]1NC(=O)c2ccc(-c3ccc(N4CCN(C(=O)c5ccc(-c6cccc(C(=O)N7CCN(c8ccc(-c9ccc%10cc9CNC(=O)[C@@H]9CCCN9[C@H](C(=O)NC(C)(C)C)[C@H](C)NC(=O)[C@H]([C@@H](C)O)NC(=O)[C@H](CC(=O)O)NC(=O)[C@H](CC(C)C)NC%10=O)cc8)CC7)n6)nc5)CC4)cc3)c(c2)CNC(=O)[C@@H]2CCCN2[C@H](C(=O)NC(C)(C)C)[C@H](C)NC(=O)[C@H]([C@@H](C)O)NC(=O)[C@H](CC(=O)O)NC1=O [Compound 466]
- IC50: 97 nM
